Assay results published in patent US20070128217A1 (priority 2003, published 2007).

Assays:
[1] = system: rabbit serum obtained by immunizing a rabbit with the SARS-CoV strain Frankfurt 1; format: binding; set-up: Binding of a rabbit serum to linear peptides / Binding of a rabbit serum to looped peptides / Rabbit serum linear peptides / Rabbit serum looped peptides / Binding of a rabbit serum to linear peptides of protein N of SARS-CoV Urbani (Rabbit serum linear peptides) / Binding of a rabbit serum to looped/cyclic peptides of protein N of SARS-CoV Urbani (Rabbit serum looped peptides): unit not given here
[2] = system: antibodies in sera from SARS patients (sera 1a, 1b, 2, 6, 37, 62, London, SARS-yellow, SARS-green); format: binding, human
[3] = system: control sera (pooled serum of ten healthy LUMC hospital workers; commercial negative donor pooled serum from the Dutch bloodbank); format: binding, human

Sequence	Binding of a rabbit serum to linear peptides [1]	Binding of a rabbit serum to looped peptides [1]	Binding of serum 1a to linear peptides of protein E of SARS-CoV Urbani [2]	Binding of serum 1a to looped/cyclic peptides of protein E of SARS-CoV Urbani [2]	Binding of serum 1b to linear peptides of protein E of SARS-CoV Urbani [2]	Binding of serum 1b to looped/cyclic peptides of protein E of SARS-CoV Urbani [2]	Binding of serum 2 to linear peptides of protein E of SARS-CoV Urbani [2]	Binding of serum 2 to looped/cyclic peptides of protein E of SARS-CoV Urbani [2]	Binding of serum 6 to linear peptides of protein E of SARS-CoV Urbani [2]	Binding of serum 6 to looped/cyclic peptides of protein E of SARS-CoV Urbani [2]	Binding of serum 37 to linear peptides of protein E of SARS-CoV Urbani [2]	Binding of serum 37 to looped/cyclic peptides of protein E of SARS-CoV Urbani [2]	Binding of serum 62 to looped/cyclic peptides of protein E of SARS-CoV Urbani [2]	Binding of serum London to looped/cyclic peptides of protein E of SARS-CoV Urbani [2]	Binding of serum SARS-green to looped/cyclic peptides of protein E of SARS-CoV Urbani [2]	Binding of serum SARS-yellow to looped/cyclic peptides of protein E of SARS-CoV Urbani [2]	Binding of Control Serum Blood-Bank to Looped peptides [3]	Binding of Control serum Blood-bank to linear peptides [3]	Binding of Control serum LUMC to linear peptides [3]	Binding of Control serum LUMC to looped peptides [3]	other results
LAFVVFLLVTLAILT	0.5	0.2	0.8	0.5	0.5	0.5	0.5	0.5	0.7	0.5	0.7	0.6	0.6	0.5	0.5	0.4	0.8	0.6	0.5	0.6	Binding of serum 62 to linear peptides of protein E of SARS-CoV Urbani [2]: 0.7; Binding of serum London to linear peptides of protein E of SARS-CoV Urbani [2]: 0.6; Binding of serum SARS-green to linear peptides of protein E of SARS-CoV Urbani [2]: 0.3; Binding of serum SARS-yellow to linear peptides of protein E of SARS-CoV Urbani [2]: 0.1
TLAILTALRLCAYCC	0.7	0.4	0.8	0.7	0.9	0.6	0.3	0.7	0.6	0.7	0.7	0.7	0.7	0.5	0.5	0.9	0.7	0.6	0.4	0.8	Binding of serum 62 to linear peptides of protein E of SARS-CoV Urbani [2]: 0.7; Binding of serum London to linear peptides of protein E of SARS-CoV Urbani [2]: 0.5; Binding of serum SARS-green to linear peptides of protein E of SARS-CoV Urbani [2]: 0.5; Binding of serum SARS-yellow to linear peptides of protein E of SARS-CoV Urbani [2]: 0.2
LRLCAYCCNIVNVSL	0.6	0.2	0.7	0.7	0.6	0.4	0.4	0.5	0.6	0.4	0.7	0.6	0.6	0.4	0.6	0.6	0.6	0.8	0.4	0.6	Binding of serum 62 to linear peptides of protein E of SARS-CoV Urbani [2]: 0.7; Binding of serum London to linear peptides of protein E of SARS-CoV Urbani [2]: 0.5; Binding of serum SARS-green to linear peptides of protein E of SARS-CoV Urbani [2]: 0.3; Binding of serum SARS-yellow to linear peptides of protein E of SARS-CoV Urbani [2]: 0.3
LTALRLCAYCCNIVN	0.6	0.4	0.9	0.6	0.8	0.4	0.4	0.7	0.7	0.5	0.8	0.7	0.7	0.3	0.3	0.4	0.7	0.7	0.5	0.6	Binding of serum 62 to linear peptides of protein E of SARS-CoV Urbani [2]: 0.7; Binding of serum London to linear peptides of protein E of SARS-CoV Urbani [2]: 0.5; Binding of serum SARS-green to linear peptides of protein E of SARS-CoV Urbani [2]: 0.3; Binding of serum SARS-yellow to linear peptides of protein E of SARS-CoV Urbani [2]: 0.2
TGTLIVNSVLLFLAF	0.5	0.0		0.4		0.3		0.4		0.3		0.3	0.6	0.3	0.2	0.4	0.4	0.6	0.3	0.5	
